We go through 5 compounds from patent EP0802181B1, “Retinoids” (F. HOFFMANN-LA ROCHE AG, priority 1996, dated 1997).

Where two headings read alike, the source gives them in different places. Some results are limits rather than exact numbers.

One series relates to limb bud cell culture. Briefly: limb bud cell culture assay (evaluation of teratogenic potential). Type of series: cell-based. An excerpt:
Teratogene Effekte gehören zu den schwerschwiegensten Nebenwirkungen aller Retinoide.

The test system of the next series is Sebumdrüsen. As to the kind of experiment: Minipig model (in vivo), histology of skin biopsies. An excerpt: Die Wirksamkeit der erfindungsgemässen Verbindungen bei der Behandlung der Akne kann mit den nachstehend beschriebenen Versuchsanordnungen gezeigt werden: • 1. Hemmung der Proliferation menschlicher Sebocyten (in vitro) Literatur: Methods in Enzymology 190, 334 (1990), T. Doran and S. Shapiro • 2. Aenderung der Differenzierung von Schweinesebocyten (invitro), Induktion von Keratin 7. Kulturen von Schweinesebocyten werden aus isolierten Sebumdrüsen erwachsener Minischweine hergestellt. Sie reagieren auf die Behandlung mit Retinoiden mit der Expression von Keratin 7, was auch der in vivo Situation entspricht. Keratin 7 wird als ein Marker für eine modifizierte Differenzierung der Sebocyten angesehen. Der entstehende Phenotyp kann kein Sebum mehr produzieren. Die Messung der Keratin 7-Induktion basiert auf einem ELISA assay unter Verwendung eines Maus-monoklonalen Antikeratin 7-Antikörpers. • 3. Minipig-Modell (in vivo) Die Haut der Minischweine hat eine ähnliche anatomische Struktur wie menschliche Haut. Im besonderen ähneln die Sebumdrüsen denen menschlicher Aknepatienten. Unter Retinoid-Behandlung zeigen sie die gleichen histologischen Veränderungen wie beim Menschen. Die Schweine erhalten täglich eine orale Dosis der Versuchssubstanz während 8 Wochen. Alle 2 Wochen wird eine Biopsie genommen und histologisch untersucht.

The mark [1] stands for this setting: limb bud cell culture assay, IC50 correlates with in vivo teratogenicity, read-out: IC50.

The term IC50 denotes the point on the concentration scale where inhibition reaches its midpoint. For `CC1=C(/C=C/C(C)=C/C=C/C(C)=C\C(=O)O)C(C)(C)C(=O)C=C1` [Beispiel 4, (2Z,4E,6E,8E)-9-(5-Oxo-2,6,6-trimethyl-cyclohexa-1,3-dienyl)-3,7-dimethyl-nona-2,4,6,8-tetraensäure], in the series with limb bud cell culture (setting [1]), the concentration for half-maximal inhibition (IC50) was more than 1000 nM. In the series on limb bud cell culture, `CC1=C(/C=C/C(C)=C/C=C/C(C)=C\C(=O)O)C(C)(C)CCC1` [Isotretinoin, reference compound] had an IC50 of 200 nM. `CC1=C(/C=C/C(C)=C/C=C/C(C)=C\C(=O)O)C(C)(C)C[C@H](O)C1` [Beispiel 1, (2Z,4E,6E,8E)-(R)-9-(4-Hydroxy-2,6,6-trimethyl-cyclohex-1-enyl)-3,7-dimethyl-nona-2,4,6,8-tetraensäure]: in the series on Sebumdrüsen (daily oral dose 10 mg/kg, after 3-4 weeks), the “Verkleinerung der Sebumdrüsen” value is “deutliche Verkleinerung der Sebumdrüsen”. Besides, the “Sebumdrüsen nach 8 Wochen” value with Sebumdrüsen (daily oral dose 10 mg/kg, after 8 weeks) is “weitgehend verschwunden”. For the same compound, the “Nebenwirkungen auf Haut und Schleimhäute” value in the series with Sebumdrüsen (oral dose 50 mg/kg, in contrast to Isotretinoin) is reported as “keinerlei Nebenwirkungen auf Haut und Schleimhäute”. In addition, in the series with limb bud cell culture (setting [1]), the IC50 was more than 1000 nM.

Regarding `CC1=C(C#C/C(C)=C/C=C/C(C)=C\C(=O)O)C(C)(C)C[C@H](O)C1` [Beispiel 3, (2Z,4E,6E)-(R)-9-(4-Hydroxy-2,6,6-trimethyl-cyclohex-1-enyl)-3,7-dimethyl-nona-2,4,6-trien-8-yn-säure], the IC50 with limb bud cell culture (setting [1]) was more than 1000 nM.

Compound `CC1=C(/C=C/C(C)=C/C=C/C(C)=C/C(=O)O)C(C)(C)CCC1` [Tretinoin, reference compound] came in with an IC50 in the series with limb bud cell culture of 80 nM.
